The target in assay [1] is T1, ABL2 (Homo sapiens, UniProt P42684).
T1 construct: endogenous in cells
Kind of assay: Kinobeads two-dose competition binding: ABL2. The note with it: sheet CATDS matrix 2; Gene Name ABL2.

Assay [2] concerns the target ABL1 (Homo sapiens, UniProt P00519). Kind of assay: Kinobeads two-dose competition binding: ABL1. The note with it: sheet CATDS matrix 2; Gene Name ABL1.
For assay [3], the target named is T2, AAK1 (Homo sapiens, UniProt Q2M2I8).
T2 construct: to maximize the representation of endogenous proteins; endogenous in cells
T2 sequence (Q2M2I8 whole entry): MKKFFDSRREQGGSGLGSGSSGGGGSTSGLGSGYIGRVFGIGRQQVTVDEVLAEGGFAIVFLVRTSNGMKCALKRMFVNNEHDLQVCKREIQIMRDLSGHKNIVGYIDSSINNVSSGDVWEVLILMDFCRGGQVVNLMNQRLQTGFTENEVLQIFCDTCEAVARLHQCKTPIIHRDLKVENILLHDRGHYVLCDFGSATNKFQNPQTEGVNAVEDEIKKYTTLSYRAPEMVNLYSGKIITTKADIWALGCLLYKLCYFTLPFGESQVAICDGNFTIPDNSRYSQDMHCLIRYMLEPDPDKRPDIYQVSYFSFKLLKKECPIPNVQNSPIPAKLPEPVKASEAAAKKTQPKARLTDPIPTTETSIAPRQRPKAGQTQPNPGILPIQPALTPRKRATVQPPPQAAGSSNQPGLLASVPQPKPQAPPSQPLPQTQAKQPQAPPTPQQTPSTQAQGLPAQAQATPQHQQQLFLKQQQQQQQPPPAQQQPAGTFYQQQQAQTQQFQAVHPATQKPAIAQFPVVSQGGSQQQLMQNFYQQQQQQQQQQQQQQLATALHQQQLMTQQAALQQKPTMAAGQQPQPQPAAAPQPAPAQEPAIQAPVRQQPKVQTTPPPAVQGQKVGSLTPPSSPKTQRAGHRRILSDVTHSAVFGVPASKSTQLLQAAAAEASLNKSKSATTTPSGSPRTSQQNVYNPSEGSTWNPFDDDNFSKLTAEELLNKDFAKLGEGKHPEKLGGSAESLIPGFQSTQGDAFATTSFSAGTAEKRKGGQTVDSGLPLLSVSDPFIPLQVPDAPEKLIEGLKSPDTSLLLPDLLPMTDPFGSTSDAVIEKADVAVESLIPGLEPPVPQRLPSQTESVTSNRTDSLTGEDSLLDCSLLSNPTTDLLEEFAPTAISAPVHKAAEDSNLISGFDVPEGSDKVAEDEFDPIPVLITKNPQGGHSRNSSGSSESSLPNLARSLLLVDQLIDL
Kind of assay: Kinobeads two-dose competition binding: AAK1.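 On all read-outs here: kinobeads competition pulldown from cell lysate, compound preincubated 45 min at 4 °C, bead-bound protein measured by label-free mass spectrometry against DMSO vehicle control.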 The settings on record: for CATDS: sheet CATDS matrix 2, Gene Name AAK1; for potency estimated from few doses: read-out: Kinobeads Drugmatrix - all: apparent Kd, AAK1.

Assay [4] deals with T3, ACAD11 (Homo sapiens, UniProt Q709F0).
T3 construct: endogenous in cells
T3 sequence (Q709F0 1-780): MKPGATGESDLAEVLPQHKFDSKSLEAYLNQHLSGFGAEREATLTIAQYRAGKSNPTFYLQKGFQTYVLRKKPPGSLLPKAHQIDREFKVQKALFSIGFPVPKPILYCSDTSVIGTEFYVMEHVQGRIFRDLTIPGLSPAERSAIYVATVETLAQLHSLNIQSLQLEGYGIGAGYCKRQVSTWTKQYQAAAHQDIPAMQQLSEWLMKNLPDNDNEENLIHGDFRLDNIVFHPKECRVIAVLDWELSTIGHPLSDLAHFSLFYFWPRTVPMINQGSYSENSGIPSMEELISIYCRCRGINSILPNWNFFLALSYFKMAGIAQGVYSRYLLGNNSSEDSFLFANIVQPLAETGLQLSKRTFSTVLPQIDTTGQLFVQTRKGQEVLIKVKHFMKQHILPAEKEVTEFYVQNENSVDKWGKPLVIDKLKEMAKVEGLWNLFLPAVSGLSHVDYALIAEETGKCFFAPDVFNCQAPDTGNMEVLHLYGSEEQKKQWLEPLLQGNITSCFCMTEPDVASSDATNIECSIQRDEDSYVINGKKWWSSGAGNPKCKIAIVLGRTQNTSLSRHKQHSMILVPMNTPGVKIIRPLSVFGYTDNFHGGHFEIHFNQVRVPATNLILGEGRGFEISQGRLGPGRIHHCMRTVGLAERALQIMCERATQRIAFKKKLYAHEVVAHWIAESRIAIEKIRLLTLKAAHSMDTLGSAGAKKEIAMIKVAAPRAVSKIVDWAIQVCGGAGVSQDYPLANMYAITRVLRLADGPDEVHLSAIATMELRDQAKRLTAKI
Kind of assay: Kinobeads two-dose competition binding: ACAD11. The settings on record: sheet CATDS matrix 2; Gene Name ACAD11.

For assay [5], the target named is T4, ACOX1 (Homo sapiens, UniProt Q15067).
T4 construct: endogenous in cells
T4 sequence (Q15067 1-660): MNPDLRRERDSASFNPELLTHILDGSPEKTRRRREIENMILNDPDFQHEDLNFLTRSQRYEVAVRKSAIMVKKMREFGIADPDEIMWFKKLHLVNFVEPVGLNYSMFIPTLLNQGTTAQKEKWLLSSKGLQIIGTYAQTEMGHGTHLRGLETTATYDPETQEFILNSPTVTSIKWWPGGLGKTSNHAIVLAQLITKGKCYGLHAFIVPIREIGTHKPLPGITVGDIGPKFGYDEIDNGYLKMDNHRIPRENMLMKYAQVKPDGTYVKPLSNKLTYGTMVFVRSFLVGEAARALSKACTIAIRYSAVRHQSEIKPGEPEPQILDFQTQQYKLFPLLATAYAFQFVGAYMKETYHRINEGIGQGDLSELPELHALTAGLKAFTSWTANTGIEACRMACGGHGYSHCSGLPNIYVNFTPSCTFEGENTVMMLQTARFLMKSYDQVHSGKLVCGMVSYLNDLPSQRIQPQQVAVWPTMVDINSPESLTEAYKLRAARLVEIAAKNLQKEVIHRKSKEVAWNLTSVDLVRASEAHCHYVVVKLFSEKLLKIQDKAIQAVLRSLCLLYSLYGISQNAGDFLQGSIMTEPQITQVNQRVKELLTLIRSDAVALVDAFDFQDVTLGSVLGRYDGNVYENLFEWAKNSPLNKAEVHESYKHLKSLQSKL
Kind of assay: Kinobeads two-dose competition binding: ACOX1.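 Further: competition of compounds with immobilized broad-spectrum kinase inhibitor beads in cell lysate at 100 and 1,000 nM, 45 min at 4 °C, bead-bound protein quantified by label-free MS versus DMSO.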 The settings on record: sheet CATDS matrix 2; Gene Name ACOX1.

Setting [6] is: sheet "Kinobeads Drugmatrix - all", unit inferred, same values below 1000 recur in sheet "nanomolar".

Where two headings read alike, the source gives them in different places.

T1 sequence (P42684 whole entry): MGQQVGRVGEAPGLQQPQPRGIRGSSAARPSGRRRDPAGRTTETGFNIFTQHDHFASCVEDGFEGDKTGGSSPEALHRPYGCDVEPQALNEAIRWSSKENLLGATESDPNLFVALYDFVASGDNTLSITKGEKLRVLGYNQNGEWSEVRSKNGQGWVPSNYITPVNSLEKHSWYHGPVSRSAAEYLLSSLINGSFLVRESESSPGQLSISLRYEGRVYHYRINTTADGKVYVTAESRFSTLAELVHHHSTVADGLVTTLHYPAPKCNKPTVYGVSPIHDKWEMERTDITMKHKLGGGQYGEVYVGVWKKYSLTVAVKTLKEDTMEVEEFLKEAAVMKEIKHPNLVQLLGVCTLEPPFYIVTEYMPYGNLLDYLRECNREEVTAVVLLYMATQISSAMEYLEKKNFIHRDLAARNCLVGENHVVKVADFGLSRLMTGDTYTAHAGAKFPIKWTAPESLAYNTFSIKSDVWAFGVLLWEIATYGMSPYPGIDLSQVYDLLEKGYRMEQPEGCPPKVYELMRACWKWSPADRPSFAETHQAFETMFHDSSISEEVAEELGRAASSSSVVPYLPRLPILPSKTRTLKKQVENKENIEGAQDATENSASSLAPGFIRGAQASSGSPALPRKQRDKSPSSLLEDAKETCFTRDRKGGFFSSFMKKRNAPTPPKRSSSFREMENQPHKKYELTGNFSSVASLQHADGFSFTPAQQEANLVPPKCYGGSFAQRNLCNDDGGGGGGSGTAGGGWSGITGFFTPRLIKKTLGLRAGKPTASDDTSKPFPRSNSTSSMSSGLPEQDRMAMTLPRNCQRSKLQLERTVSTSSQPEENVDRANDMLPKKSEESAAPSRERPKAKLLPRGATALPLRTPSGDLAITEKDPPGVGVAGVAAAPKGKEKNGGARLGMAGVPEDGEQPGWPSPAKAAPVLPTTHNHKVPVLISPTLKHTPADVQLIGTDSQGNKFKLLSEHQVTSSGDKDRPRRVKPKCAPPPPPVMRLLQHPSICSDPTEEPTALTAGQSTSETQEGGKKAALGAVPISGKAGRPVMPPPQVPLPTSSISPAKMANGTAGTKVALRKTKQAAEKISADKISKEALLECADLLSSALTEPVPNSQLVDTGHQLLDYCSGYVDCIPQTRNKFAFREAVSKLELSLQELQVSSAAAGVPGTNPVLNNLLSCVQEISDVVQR
Chain of ABL1 (P00519 28-1130 limits assumed): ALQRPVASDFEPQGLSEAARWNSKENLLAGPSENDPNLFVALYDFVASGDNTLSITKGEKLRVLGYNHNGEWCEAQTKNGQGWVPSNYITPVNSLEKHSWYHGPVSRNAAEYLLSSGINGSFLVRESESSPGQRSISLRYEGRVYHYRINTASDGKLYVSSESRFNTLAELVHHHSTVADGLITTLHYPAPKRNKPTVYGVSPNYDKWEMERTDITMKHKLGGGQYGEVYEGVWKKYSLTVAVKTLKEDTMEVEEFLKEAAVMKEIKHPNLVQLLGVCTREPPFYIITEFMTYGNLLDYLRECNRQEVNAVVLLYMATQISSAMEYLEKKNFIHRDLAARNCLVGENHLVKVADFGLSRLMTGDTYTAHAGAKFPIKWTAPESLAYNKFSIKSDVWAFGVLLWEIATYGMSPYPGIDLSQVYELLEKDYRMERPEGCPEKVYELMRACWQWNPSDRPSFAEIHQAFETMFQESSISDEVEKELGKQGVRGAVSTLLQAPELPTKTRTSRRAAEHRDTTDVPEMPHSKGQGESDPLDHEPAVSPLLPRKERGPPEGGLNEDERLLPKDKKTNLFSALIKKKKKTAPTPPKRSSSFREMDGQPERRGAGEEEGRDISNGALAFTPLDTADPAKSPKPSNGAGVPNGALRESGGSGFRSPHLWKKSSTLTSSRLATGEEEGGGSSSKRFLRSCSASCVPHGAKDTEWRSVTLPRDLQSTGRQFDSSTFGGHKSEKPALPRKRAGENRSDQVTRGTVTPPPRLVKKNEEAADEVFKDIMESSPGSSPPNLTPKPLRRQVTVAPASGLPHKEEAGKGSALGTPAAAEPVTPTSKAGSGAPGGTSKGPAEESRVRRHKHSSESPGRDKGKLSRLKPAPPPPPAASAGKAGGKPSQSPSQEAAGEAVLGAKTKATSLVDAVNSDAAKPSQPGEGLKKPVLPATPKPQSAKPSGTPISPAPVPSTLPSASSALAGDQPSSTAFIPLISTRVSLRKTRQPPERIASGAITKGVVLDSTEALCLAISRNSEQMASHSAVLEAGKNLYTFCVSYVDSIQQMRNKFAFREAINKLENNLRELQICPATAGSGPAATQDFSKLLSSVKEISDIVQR

`CN(C)S(=O)(=O)c1cc(-c2ccc3nccc(-c4cccc(S(N)(=O)=O)c4)c3c2)cnc1N` [GSK1669921A]: the CATDS in assay [1], in assay [2], in assay [3], in assay [4] and in assay [5] was 0 in each case.
As for `Nc1ncc(-c2ccc3nccc(-c4ccncc4)c3c2)cc1S(=O)(=O)N1CCCCC1` [GSK1693850A], the CATDS in assay [1], in assay [2], in assay [3], in assay [4] and in assay [5] was 0 in each case.
In the case of `CCCN1CCC(Oc2cc(Nc3nc(Nc4cccc(F)c4C(N)=O)c4cc[nH]c4n3)c(OC)cc2Cl)CC1` [GSK1713088A], the CATDS in assay [1], in assay [2], in assay [3], in assay [4] and in assay [5] was 0 in each case.
With `COc1cc(N2CCN(C(C)C)CC2)ccc1Nc1nc(Nc2cccc(F)c2C(=O)O)c2cc[nH]c2n1` [GSK1819799A], the CATDS in assay [1], in assay [2], in assay [3], in assay [4] and in assay [5] was 0 throughout.
As for `CNC(=O)c1c(F)cccc1Nc1nc(Nc2cc3c(cc2OC)CCN3C(=O)CN(C)C)nc2[nH]ccc12` [GSK1838705], the CATDS in assay [1], in assay [2], in assay [3], in assay [4] and in assay [5] was 0 throughout.
On to `Cc1ccc(NC(=O)c2cccc(N3CCCCC3)c2)cc1-c1ccc(C(=O)NCC2CC2)cc1` [GSK1917008A], for which the CATDS in assay [1], in assay [2], in assay [3], in assay [4] and in assay [5] was 0 each time.
In the case of `COc1cc2c(cc1Nc1nc(Nc3ccsc3C(N)=O)c3cc[nH]c3n1)N(C(=O)CN(C)C)CCC2` [GSK2110236A], the CATDS in assay [1], in assay [2], in assay [3], in assay [4] and in assay [5] was 0 each time.
For `N#Cc1ccc(CCNc2nccc(-c3cccc(CN4CCNCC4)c3)n2)cc1` [GSK2137462A], the CATDS in assay [1], in assay [2], in assay [3], in assay [4] and in assay [5] was 0 in each case.
For the molecule `COc1cc2c(cc1Nc1nc(Nc3ccsc3C(N)=O)c3cc[nH]c3n1)N(C(=O)CN(C)C)CCC2(C)C` [GSK2163632A], the CATDS in assay [1], in assay [2], in assay [3], in assay [4] and in assay [5] was 0 in each case.
For `COc1cc2c(cc1Nc1nc(N3CCc4ccccc43)c3cc[nH]c3n1)N(C(=O)CN(C)C)CC2` [GSK2186269A], the CATDS in assay [1], in assay [2], in assay [3], in assay [4] and in assay [5] was 0 throughout.
With `O=c1[nH]ccc2nc(N[C@@H]3CCNC3)nc(Nc3cc(Cl)cc(Cl)c3)c12` [GSK2188764A], the CATDS is 0 in assay [1]; 0 in assay [2]; 0.04842 in assay [3]; 0 in assay [4]; 0 in assay [5]. In assay [3], the potency estimated from few doses is 114 nM.
As for `Cc1cccc(Nc2nc(N[C@H]3CCNC3)ncc2C(N)=O)c1` [GSK2197149A], the CATDS is recorded as 0 in assay [1]; 0 in assay [2]; 0.1293 in assay [3]; 0 in assay [4]; 0 in assay [5]. In assay [3], the potency estimated from few doses was 64.6 nM.
As to `CNc1nccc(-c2ccc3c(N)n[nH]c3c2)n1` [GSK2206003A], the CATDS in assay [1] was 0; in assay [2] it was 0; in assay [3] it was 0.118; in assay [4], 0; in assay [5] it was 0. The potency estimated from few doses in assay [3] (setting [6]) was 108 nM.
For `COc1cc(C)c(NC(=O)CN(C)C)cc1Nc1nc(Nc2cccc(F)c2C(N)=O)c2cc[nH]c2n1` [GSK2213727A], the CATDS in assay [1], in assay [2], in assay [3], in assay [4] and in assay [5] was 0 in each case.
Regarding `CNC(=O)c1ncccc1Nc1nc(Nc2cc3c(cc2OC)CCCN3C(=O)CN(C)C)nc2[nH]ccc12` [GSK2220400A], the CATDS in assay [1], in assay [2], in assay [3], in assay [4] and in assay [5] was 0 throughout.
Consider `CC(C)Nc1cc(-c2ccc3c(N)n[nH]c3c2)nc(N)n1` [GSK2221681A], for which the CATDS in assay [1] turned out to be 0; in assay [2], 0; in assay [3], 0.2807; in assay [4], 0; in assay [5], 0. Also, in assay [3] (setting [6]), the potency estimated from few doses is 149 nM.
For the molecule `CNc1cc(-c2ccc3c(N)n[nH]c3c2)nc(N)n1` [GSK2224810A], the CATDS in assay [1] was found to be 0; in assay [2], 0; in assay [3], 0.04187; in assay [4], 0; in assay [5] it was 0.
Consider `Nc1nc(Nc2ccccc2)cc(-c2ccc3c(N)n[nH]c3c2)n1` [GSK2225749A], for which the CATDS in assay [1] amounted to 0; in assay [2], 0; in assay [3] it was 0.2514; in assay [4], 0; in assay [5], 0.
Consider `Nc1nc(-c2ccc3c(N)n[nH]c3c2)cc(N2CCCCC2)n1` [GSK2228768A], for which the CATDS in assay [1] stood at 0; in assay [2] it was 0; in assay [3] it was 0.1964; in assay [4], 0; in assay [5] it was 0.
For `CC(C)c1cc(-c2ccc3c(N)n[nH]c3c2)nc(N)n1` [GSK2250882A], the CATDS worked out at 0 in assay [1]; 0 in assay [2]; 0.3935 in assay [3]; 0 in assay [4]; 0 in assay [5].
Regarding `C[C@@H]1CCCCN1c1cc(-c2ccc3c(N)n[nH]c3c2)nc(N)n1` [GSK2258759A], the CATDS in assay [1], in assay [2], in assay [3], in assay [4] and in assay [5] was 0 throughout.
For the molecule `CC(C)N1CCN(Cc2cnc(-c3cc(-c4cccc5[nH]ccc45)cc4[nH]ncc34)o2)CC1` [GSK2269557], the CATDS in assay [1], in assay [2], in assay [3], in assay [4] and in assay [5] was 0 in each case.
Take `Cc1ccccc1Cn1ccn2c(=O)cc(N3CCOCC3)nc12` [GSK2269905A]: the CATDS in assay [1], in assay [2], in assay [3], in assay [4] and in assay [5] was 0 each time.
In the case of `O=c1[nH]cc(-c2ccc(N3CCOCC3)cc2)c2sc(-c3cn[nH]c3)cc12` [GSK2276055A], the CATDS in assay [1], in assay [2], in assay [3], in assay [4] and in assay [5] was 0 each time.

Source of the values: PMC11062922 (Nature Chemical Biology, 2023).
